Like-named read-outs stand apart in the source and are kept apart here.
Columns and labels:
[1] = target: T1, SHP-2 enzyme (Met1-Leu525) (Homo sapiens, UniProt Q06124); assay: SHP2 inhibition enzymatic assay (DiFMUP substrate, IRS1 peptide activation); format: biochemical; conditions: 0.5 nM SHP-2, 500 nM IRS1 peptide, 75 μM DiFMUP; read-out: SHP2wt - IC50
T1 construct: synthetized by Origene, Met1-Leu525, cat #TP750155; purchased Origene TP750155
T1 sequence (Q06124 1-525): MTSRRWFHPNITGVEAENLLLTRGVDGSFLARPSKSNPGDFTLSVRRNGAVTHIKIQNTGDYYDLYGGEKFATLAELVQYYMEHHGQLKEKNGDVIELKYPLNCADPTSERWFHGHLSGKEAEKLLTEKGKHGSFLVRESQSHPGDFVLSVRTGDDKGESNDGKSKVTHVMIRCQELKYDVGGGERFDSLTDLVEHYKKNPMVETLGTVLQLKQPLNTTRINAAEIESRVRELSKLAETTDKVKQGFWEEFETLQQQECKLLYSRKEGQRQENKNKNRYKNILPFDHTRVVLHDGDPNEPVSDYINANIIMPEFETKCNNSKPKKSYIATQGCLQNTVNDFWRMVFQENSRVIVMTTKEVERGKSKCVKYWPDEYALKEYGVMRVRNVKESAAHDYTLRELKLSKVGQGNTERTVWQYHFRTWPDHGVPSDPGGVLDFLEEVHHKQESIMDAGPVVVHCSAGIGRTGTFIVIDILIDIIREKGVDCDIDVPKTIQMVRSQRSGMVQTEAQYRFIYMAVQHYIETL
Experimental: Assay volume of 20 μL/well was assembled in 384 well black polystyrene low-binding microplates (Greiner), using the following buffer: 60 mM HEPES pH 7.2, 75 mM NaCl, 75 mM KCl, 1 mM EDTA pH 8, 0.05% tween-20, 5 mM DTT. The SHP-2 enzyme (synthetized by Origene, Met1-Leu525, cat #TP750155) was used at a final concentration of 0.5 nM.
Briefly, DMSO serially diluted testing compounds were transferred to the bottom of the assay plate. SHP2 was then added together with the IRS1 peptide 30 min post incubation, the DiFMUP substrate was added to the reaction and incubated 30 min at rt. […] The fluorescence was detected by a microplate reader (Envision, PerkinElmer) according to the DiFMUP excitation and emission wavelength. The lower the fluorescence the higher the SHP2 inhibition.
The percentage inhibition is fitted against the compound dilutions with a four-parameter logistic regression. The inflection point (i.e. the concentration at which half-maximal inhibition is achieved) is the IC50.

[2] = system: phospho-ERK1/2 (Thr202/Tyr204) in KYSE-520 cells; assay: Phospho-ERK cellular assay (TR-FRET); format: cell-based; conditions: KYSE-520 cells, 2 h at 37° C., read-out: pERK IC50
Experimental: ERK phosphorylation was detected using the “Advanced phospho-ERK1/2 (Thr202/Tyr204)” TR-FRET kit (Cisbio, Cat #64AERPEG/H), following the manufacturer reagents and instructions.
Briefly, 20.000/well KYSE-520 cells (DSMZ ACC 371) were plated in 6 μL RPMI-1640 (Invitrogen) growth medium, into 384 white low-volume high base TC microplates (Greiner). After an overnight incubation, cells were treated with DMSO serial diluted compounds and incubated for 2 h at 37° C. After incubation, 2 μL/well of 4X Lysis Buffer (Cisbio 64KL1FDF), were added and incubated with cells for 30 min on gentle shaking. Finally, lysates were added with 2 μL/well of Eu cryptate (donor) and D2 (acceptor) conjugated antibodies (as provided by the Cisbio kit #64AERPEG/H) diluted 1:100 in Detection Buffer (as provided by the Cisbio kit #64AERPEG/H). Plates were then sealed and incubated at rt in the dark. After an overnight incubation, the TR-FRET signal was detected on a suitable reader (Envision, PerkinElmer). The lower the TR-FRET signal the higher the higher the SHP2 inhibition in cells.
The activity of each compound dilution was calculated as percentage between vehicle DMSO treated cells and no cells, 0% inhibition and 100% inhibition respectively. The percentage activity is fitted against the compound dilutions with a four-parameter logistic regression. The inflection point (i.e. the concentration at which half-maximal inhibition is achieved) is the IC50.

SMILES | IC50 [1] [nM] | IC50 ([2]; Homo sapiens, KYSE-520, 2 h) [nM] | IC50 [2] [nM]
N[C@@H]1c2ccnn2CC12CCN(c1cnc(Sc3cccc(Cl)c3Cl)cn1)CC2 [Example 83, (S)-1-(5-((2,3-dichlorophenyl)thio)pyrazin-2-yl)-4′H,6′H-spiro[piperidine-4,5′-pyrrolo[1,2-b]pyrazol]-4′-amine] | ≤ 50 | < 100 | 
Cc1nc(N2CCC3(CC2)Cn2nccc2[C@H]3N)cc(=O)n1-c1cccc(Cl)c1Cl (single isomer, unassigned) [Example 77a] | ≤ 50 |  | 100 to 500
NC(=O)c1ccn(-c2nccc(Sc3cnc(N4CCC5(CC4)Cn4nccc4[C@H]5N)cn3)c2Cl)c1 [Example 66, (S)-1-(4-((5-(4′-amino-4′H,6′H-spiro[piperidine-4,5′-pyrrolo[1,2-b]pyrazol]-1-yl)pyrazin-2-yl)thio)-3-chloropyridin-2-yl)-1H-pyrrole-3-carboxamide] | ≤ 50 | < 100 | 
Cn1c(N2CCC3(CC2)Cn2nccc2[C@H]3N)ncc(Sc2ccnc(N)c2Cl)c1=O [Example 76, (S)-5-((2-amino-3-chloropyridin-4-yl)thio)-2-(4′-amino-4′H,6′H-spiro[piperidine-4,5′-pyrrolo[1,2-b]pyrazol]-1-yl)-3-methylpyrimidin-4(3H)-one] | ≤ 50 | < 100 | 
Cc1nccc(Sc2cnc(N3CCC4(CC3)Cn3nccc3[C@H]4N)cn2)c1F [Example 81, (S)-1-(5-((3-fluoro-2-methylpyridin-4-yl)thio)pyrazin-2-yl)-4′H,6′H-spiro[piperidine-4,5′-pyrrolo[1,2-b]pyrazol]-4′-amine] | ≤ 50 | < 100 | 
N[C@@H]1c2ccnn2CC12CCN(c1cnc(Sc3ccncc3Cl)cn1)CC2 [Example 80, (S)-1-(5-((3-chloropyridin-4-yl)thio)pyrazin-2-yl)-4′H,6′H-spiro[piperidine-4,5′-pyrrolo[1,2-b]pyrazol]-4′-amine] | ≤ 50 | < 100 | 
Cc1nccc(-c2ncc3c(N4CCC5(CC4)Cn4nccc4[C@H]5N)nccn23)c1F [Example 89, (S)-1-(3-(3-fluoro-2-methylpyridin-4-yl)imidazo[1,5-a]pyrazin-8-yl)-4′H,6′H-spiro[piperidine-4,5′-pyrrolo[1,2-b]pyrazol]-4′-amine] | 50 to 300 |  | 
Nc1nc(N2CCC3(CC2)Cn2nccc2[C@H]3N)cnc1Sc1ccn2ccnc2c1Cl [Example 44, (S)-1-(6-amino-5-((8-chloroimidazo[1,2-a]pyridin-7-yl)thio)pyrazin-2-yl)-4′H,6′H-spiro[piperidine-4,5′-pyrrolo[1,2-b]pyrazol]-4′-amine] |  | < 100 | 
Cc1c(N2CCC3(CC2)Cn2nccc2[C@H]3N)nc(C)n(-c2cccc(Cl)c2Cl)c1=O [Example 88, (S)-6-(4′-amino-4′H,6′H-spiro[piperidine-4,5′-pyrrolo[1,2-b]pyrazol]-1-yl)-3-(2,3-dichlorophenyl)-2,5-dimethylpyrimidin-4(3H)-one] | ≤ 50 |  | 
N[C@@H]1c2ccnn2CC12CCN(c1ccc(Oc3cccc(Cl)c3Cl)nc1)CC2 [Example 90, (S)-1-(6-(2,3-dichlorophenoxy)pyridin-3-yl)-4′H,6′H-spiro[piperidine-4,5′-pyrrolo[1,2-b]pyrazol]-4′-amine] | 50 to 300 |  | 
N[C@@H]1c2ccnn2CC12CCN(c1cnc(Sc3ccnc(-n4cccn4)c3Cl)cn1)CC2 [Example 33, (S)-1-(5-((3-chloro-2-(1H-pyrazol-1-yl)pyridin-4-yl)thio)pyrazin-2-yl)-4′H,6′H-spiro[piperidine-4,5′-pyrrolo[1,2-b]pyrazol]-4′-amine] |  | < 100 | 
Cc1cn2ccc(Sc3cnc(N4CCC5(CC4)Cn4nccc4[C@H]5N)cn3)c(Cl)c2n1 [Example 43, (S)-1-(5-((8-chloro-2-methylimidazo[1,2-a]pyridin-7-yl)thio)pyrazin-2-yl)-4′H,6′H-spiro[piperidine-4,5′-pyrrolo[1,2-b]pyrazol]-4′-amine] |  | < 100 | 
Cc1nccc(Sc2cnc(N3CCC4(CC3)Cn3cccc3[C@H]4N)cn2)c1F [Example 87, (S)-1-(5-((3-fluoro-2-methylpyridin-4-yl)thio)pyrazin-2-yl)-1′H,3′H-spiro[piperidine-4,2′-pyrrolizin]-1′-amine] | ≤ 50 |  | 

Source: patent US20240239799A1, “(S)-1-(5-((PYRIDIN-3-YL)THIO)PYRAZIN-2-YL)-4'H,6'H-SPIRO[PIPERIDINE-4,5'-PYRROLO [1,2-B]PYRAZOL]-4'-AMINE DERIVATIVES AND SIMILAR COMPOUNDS AS SHP2 INHIBITORS FOR THE TREATMENT OF E.G. CANCER” (C.N.C.C.S. S.C.A.R.L. COLLEZIONE NAZIONALE DEI COMPOSTI …, priority 2021, published 2024)
